# Test results: US8901118B2, “Compounds and methods for kinase modulation, and indications therefor” (Plexxikon Inc., priority 2010, dated 2014)
# What was measured:
# [1] = target: Fms kinase (Homo sapiens, UniProt P07333); experiment: Fms kinase biochemical activity assay (AlphaScreen, biotin-(E4Y)10 phosphorylation); details: 100 μM ATP; read-out: Biochemical Inhibition IC50 Fms
# Summary of the method: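 AlphaScreen read-out (PY20 acceptor, streptavidin donor beads, EDTA stop) of biotin-(E4Y)10 phosphorylation, with IC50 taken from the concentration–signal curve. Reaction: 30 nM substrate, 100 μM ATP, 1 ng/well Fms, Hepes pH 7.5 with Mg2+/Mn2+, 5% DMSO, 20 min at 30 °C.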
# [2] = Relative solubility by turbidity in aqueous buffers (pH 1.5, 4.5, 6.8, 7.4); assay type: physicochemical; details: for turbidity threshold (L, M, H) 1.4: pH 1.5 (SGF); for turbidity threshold (L, M, H) 4.5: pH 4.5 (SIF); for turbidity threshold (L, M, H) 6.8: pH 6.8 (SIF); for turbidity threshold (L, M, H) 7.4: pH 7.4 (HEPES)
# Summary of the method: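 Reported value: concentration at which optical density at 490, 535 and 650 nm passes 0.01, taken as the mean of the three wavelengths. Buffers were 0.5M NaCl pH 1.5, 0.05M NaH2PO4 pH 4.5 or 6.8, and 10 mM HEPES/150 mM NaCl pH 7.4, each receiving serial 1:1 DMSO dilutions of a 25 mM stock.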
# [3] = target: T1, CYP1A2 (Homo sapiens, UniProt P05177); experiment: CYP1A2 inhibition (fluorescent substrate CEC); assay type: in vitro ADME; details: read-out: Cyp IC50 1A2
# T1 sequence (P05177 1-516): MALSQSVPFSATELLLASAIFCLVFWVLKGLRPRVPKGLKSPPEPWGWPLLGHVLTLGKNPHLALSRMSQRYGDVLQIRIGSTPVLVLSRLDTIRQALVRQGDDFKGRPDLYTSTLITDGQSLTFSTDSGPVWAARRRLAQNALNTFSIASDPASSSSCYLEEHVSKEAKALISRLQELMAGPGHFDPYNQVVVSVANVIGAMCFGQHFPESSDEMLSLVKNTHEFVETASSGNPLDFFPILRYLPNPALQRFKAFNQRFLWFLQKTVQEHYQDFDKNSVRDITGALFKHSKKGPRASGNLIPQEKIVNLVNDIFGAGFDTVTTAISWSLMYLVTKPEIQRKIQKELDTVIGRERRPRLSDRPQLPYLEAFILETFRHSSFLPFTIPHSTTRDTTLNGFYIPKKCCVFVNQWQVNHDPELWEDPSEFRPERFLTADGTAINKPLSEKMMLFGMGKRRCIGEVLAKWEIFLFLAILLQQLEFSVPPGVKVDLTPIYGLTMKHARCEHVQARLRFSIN
# Summary of the method: (§1)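 IC50 derives from metabolite fluorescence against compound concentration, read at excitation 409 nm and emission 460 nm for CYP1A2/2C19 or 530 nm for CYP2C9/2D6. Incubations ran at 37° C for 15 min (1A2), 45 min (2C9) or 30 min (2C19, 2D6), after serial dilution into NADPH cofactor mix and 10 min preincubation.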
# [4] = target: CYP2D6 (Homo sapiens, UniProt P10635); experiment: CYP2D6 inhibition (fluorescent substrate AMMC); assay type: in vitro ADME; details: read-out: Cyp IC50 2D6
# CYP2D6, sequence (P10635 whole entry): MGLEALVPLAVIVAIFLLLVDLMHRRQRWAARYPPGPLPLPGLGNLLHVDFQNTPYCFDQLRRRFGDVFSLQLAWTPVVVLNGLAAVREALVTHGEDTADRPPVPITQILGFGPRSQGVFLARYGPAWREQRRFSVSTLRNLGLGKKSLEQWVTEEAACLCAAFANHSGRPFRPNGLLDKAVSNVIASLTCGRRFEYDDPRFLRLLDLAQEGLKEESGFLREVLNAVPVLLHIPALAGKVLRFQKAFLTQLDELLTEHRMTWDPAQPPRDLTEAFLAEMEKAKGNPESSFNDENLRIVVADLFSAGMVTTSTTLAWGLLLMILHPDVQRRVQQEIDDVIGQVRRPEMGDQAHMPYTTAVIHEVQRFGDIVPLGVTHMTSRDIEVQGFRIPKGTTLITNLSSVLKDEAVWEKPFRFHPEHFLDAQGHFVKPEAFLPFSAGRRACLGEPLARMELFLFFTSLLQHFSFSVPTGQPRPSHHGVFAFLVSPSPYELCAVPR
# Summary of the method: as §1
# [5] = target: CYP3A4(BQ) (Homo sapiens, UniProt P08684); experiment: CYP3A4(BQ) inhibition; assay type: in vitro ADME; details: CYP3A4, substrate BQ; read-out: Cyp IC50 3A4(BQ)
# CYP3A4(BQ), sequence (P08684 whole entry): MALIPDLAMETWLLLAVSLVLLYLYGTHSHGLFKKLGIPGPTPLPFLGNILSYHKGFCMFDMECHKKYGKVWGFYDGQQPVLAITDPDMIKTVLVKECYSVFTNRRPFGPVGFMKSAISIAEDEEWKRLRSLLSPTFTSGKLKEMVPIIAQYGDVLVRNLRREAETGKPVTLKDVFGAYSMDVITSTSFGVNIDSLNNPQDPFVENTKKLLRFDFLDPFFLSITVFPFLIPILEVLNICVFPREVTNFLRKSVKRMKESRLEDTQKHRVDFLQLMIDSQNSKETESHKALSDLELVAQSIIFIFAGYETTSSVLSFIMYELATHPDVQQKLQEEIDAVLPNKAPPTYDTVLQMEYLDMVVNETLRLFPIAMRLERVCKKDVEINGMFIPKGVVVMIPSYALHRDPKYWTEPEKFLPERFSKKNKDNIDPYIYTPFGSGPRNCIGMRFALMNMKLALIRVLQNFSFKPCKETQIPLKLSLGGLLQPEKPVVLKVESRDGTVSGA
# Summary of the method: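 After 30 min incubation at 37° C, plates were read on a Tecan Safire 2 at 409 ex/460 em, and IC50 values came from signal plotted against compound concentration. Enzyme and substrate were sourced from BD Biosciences. The cofactor mix held 1.3% NADPH Regeneration system Solution A, 1.04% Solution B, 5% acetonitrile and 0.05% DMSO.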
# Fms kinase, sequence (P07333 20-972): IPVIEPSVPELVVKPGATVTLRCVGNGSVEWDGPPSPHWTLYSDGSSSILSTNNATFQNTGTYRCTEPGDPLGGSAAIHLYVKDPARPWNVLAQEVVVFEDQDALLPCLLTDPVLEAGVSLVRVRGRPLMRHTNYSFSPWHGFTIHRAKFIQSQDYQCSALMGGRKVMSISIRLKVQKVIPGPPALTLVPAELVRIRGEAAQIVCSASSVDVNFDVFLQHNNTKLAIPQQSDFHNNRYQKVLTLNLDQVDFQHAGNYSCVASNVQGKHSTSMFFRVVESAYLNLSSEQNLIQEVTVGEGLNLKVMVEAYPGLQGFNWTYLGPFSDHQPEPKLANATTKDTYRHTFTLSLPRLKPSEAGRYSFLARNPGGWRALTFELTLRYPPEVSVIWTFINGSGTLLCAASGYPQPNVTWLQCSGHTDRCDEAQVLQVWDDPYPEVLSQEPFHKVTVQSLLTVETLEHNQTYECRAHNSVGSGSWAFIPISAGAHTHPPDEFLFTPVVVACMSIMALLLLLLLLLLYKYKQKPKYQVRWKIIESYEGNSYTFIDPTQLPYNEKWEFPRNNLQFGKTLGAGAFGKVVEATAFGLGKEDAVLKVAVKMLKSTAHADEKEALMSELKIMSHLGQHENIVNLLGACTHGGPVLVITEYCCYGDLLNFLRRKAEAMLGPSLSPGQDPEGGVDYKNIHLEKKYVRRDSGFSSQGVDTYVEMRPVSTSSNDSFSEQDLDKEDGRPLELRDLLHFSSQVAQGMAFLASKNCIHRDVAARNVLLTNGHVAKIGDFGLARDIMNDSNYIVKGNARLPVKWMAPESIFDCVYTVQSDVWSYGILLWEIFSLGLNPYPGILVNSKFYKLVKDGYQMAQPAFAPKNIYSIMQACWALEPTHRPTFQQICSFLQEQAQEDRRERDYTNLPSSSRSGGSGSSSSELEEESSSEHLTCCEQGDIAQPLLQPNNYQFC
SMILES,IC50 [1],"turbidity threshold (L, M, H) 1.4 [2]","turbidity threshold (L, M, H) 4.5 [2]","turbidity threshold (L, M, H) 6.8 [2]","turbidity threshold (L, M, H) 7.4 [2]",IC50 [3],IC50 [4],IC50 [5]
"Cc1ccc(Nc2ccc(C(=O)c3c[nH]c4ncnc(NC5CCCCC5)c34)c(F)n2)cn1 [Compound P-4111, [4-(cyclohexylamino)-7H-pyrrolo[2,3-d]pyrimidin-5-yl]-[2-fluoro-6-[(6-methyl-3-pyridyl)amino]-3-pyridyl]methanone]",< 0.1 µM,H (high solubility if the threshold concentration is >250 μm),L (low solubility if the threshold concentration is <31.3 μM),L (low solubility if the threshold concentration is <31.3 μM),L (low solubility if the threshold concentration is <31.3 μM),> 10 µM,> 10 µM,5 to 10 µM
"Cc1ccc(Nc2ccc(C(=O)c3c[nH]c4ncnc(NCC(F)(F)F)c34)c(F)n2)cn1 [Compound P-4112, [2-fluoro-6-[(6-methyl-3-pyridyl)amino]-3-pyridyl]-[4-(2,2,2-trifluoroethylamino)-7H-pyrrolo[2,3-d]pyrimidin-5-yl]methanone]",< 0.1 µM,M (moderate solubility if the threshold concentration is 31.3 μM to 250 μM),M (moderate solubility if the threshold concentration is 31.3 μM to 250 μM),M (moderate solubility if the threshold concentration is 31.3 μM to 250 μM),H (high solubility if the threshold concentration is >250 μm),< 5 µM,< 5 µM,> 10 µM
"CCCNc1ncnc2[nH]cc(C(=O)c3ccc(Nc4ccc(C)nc4)nc3F)c12 [Compound P-4114, [2-fluoro-6-[(6-methyl-3-pyridyl)amino]-3-pyridyl]-[4-(propylamino)-7H-pyrrolo[2,3-d]pyrimidin-5-yl]methanone]",< 0.01 µM,H (high solubility if the threshold concentration is >250 μm),L (low solubility if the threshold concentration is <31.3 μM),L (low solubility if the threshold concentration is <31.3 μM),L (low solubility if the threshold concentration is <31.3 μM),> 10 µM,> 10 µM,> 10 µM
"CNc1ncnc2[nH]cc(C(=O)c3ccc(Nc4ccc(C)nc4)nc3F)c12 [Compound P-4115, [2-fluoro-6-[(6-methyl-3-pyridyl)amino]-3-pyridyl]-[4-(methylamino)-7H-pyrrolo[2,3-d]pyrimidin-5-yl]methanone]",< 0.01 µM,H (high solubility if the threshold concentration is >250 μm),M (moderate solubility if the threshold concentration is 31.3 μM to 250 μM),M (moderate solubility if the threshold concentration is 31.3 μM to 250 μM),M (moderate solubility if the threshold concentration is 31.3 μM to 250 μM),< 5 µM,< 5 µM,> 10 µM
"CCc1ccc(Nc2ccc(C(=O)c3c[nH]c4ncnc(NC5CCOCC5)c34)c(F)n2)cn1 [Compound P-4116, [6-[(6-ethyl-3-pyridyl)amino]-2-fluoro-3-pyridyl]-[4-(tetrahydropyran-4-ylamino)-7H-pyrrolo[2,3-d]pyrimidin-5-yl]methanone]",< 0.1 µM,H (high solubility if the threshold concentration is >250 μm),M (moderate solubility if the threshold concentration is 31.3 μM to 250 μM),M (moderate solubility if the threshold concentration is 31.3 μM to 250 μM),M (moderate solubility if the threshold concentration is 31.3 μM to 250 μM),> 10 µM,> 10 µM,> 10 µM
"CCc1ccc(Nc2ccc(C(=O)c3c[nH]c4ncnc(NC(C)C)c34)c(F)n2)cn1 [Compound P-4117, [6-[(6-ethyl-3-pyridyl)amino]-2-fluoro-3-pyridyl]-[4-(isopropylamino)-7H-pyrrolo[2,3-d]pyrimidin-5-yl]methanone]",< 0.01 µM,H (high solubility if the threshold concentration is >250 μm),L (low solubility if the threshold concentration is <31.3 μM),L (low solubility if the threshold concentration is <31.3 μM),L (low solubility if the threshold concentration is <31.3 μM),5 to 10 µM,> 10 µM,> 10 µM
"CCc1ccc(Nc2ccc(C(=O)c3c[nH]c4ncnc(NCC5CC5)c34)c(F)n2)cn1 [Compound P-4118, [4-(cyclopropylmethylamino)-7H-pyrrolo[2,3-d]pyrimidin-5-yl]-[6-[(6-ethyl-3-pyridyl)amino]-2-fluoro-3-pyridyl]methanone]",< 0.1 µM,H (high solubility if the threshold concentration is >250 μm),M (moderate solubility if the threshold concentration is 31.3 μM to 250 μM),M (moderate solubility if the threshold concentration is 31.3 μM to 250 μM),L (low solubility if the threshold concentration is <31.3 μM),> 10 µM,> 10 µM,> 10 µM
"CCc1ccc(Nc2ccc(C(=O)c3c[nH]c4ncnc(NCCOC)c34)c(F)n2)cn1 [Compound P-4119, [6-[(6-ethyl-3-pyridyl)amino]-2-fluoro-3-pyridyl]-[4-(2-methoxyethylamino)-7H-pyrrolo[2,3-d]pyrimidin-5-yl]methanone]",< 0.01 µM,H (high solubility if the threshold concentration is >250 μm),M (moderate solubility if the threshold concentration is 31.3 μM to 250 μM),M (moderate solubility if the threshold concentration is 31.3 μM to 250 μM),L (low solubility if the threshold concentration is <31.3 μM),> 10 µM,> 10 µM,> 10 µM
"CCc1ccc(Nc2ccc(C(=O)c3c[nH]c4ncnc(NCC(F)(F)F)c34)c(F)n2)cn1 [Compound P-4120, [6-[(6-ethyl-3-pyridyl)amino]-2-fluoro-3-pyridyl]-[4-(2,2,2-trifluoroethylamino)-7H-pyrrolo[2,3-d]pyrimidin-5-yl]methanone]",< 0.1 µM,L (low solubility if the threshold concentration is <31.3 μM),M (moderate solubility if the threshold concentration is 31.3 μM to 250 μM),M (moderate solubility if the threshold concentration is 31.3 μM to 250 μM),M (moderate solubility if the threshold concentration is 31.3 μM to 250 μM),< 5 µM,< 5 µM,> 10 µM
"CCc1ccc(Nc2ccc(C(=O)c3c[nH]c4ncnc(NCC(C)C)c34)c(F)n2)cn1 [Compound P-4121, [6-[(6-ethyl-3-pyridyl)amino]-2-fluoro-3-pyridyl]-[4-(isobutylamino)-7H-pyrrolo[2,3-d]pyrimidin-5-yl]methanone]",< 0.1 µM,H (high solubility if the threshold concentration is >250 μm),H (high solubility if the threshold concentration is >250 μm),H (high solubility if the threshold concentration is >250 μm),H (high solubility if the threshold concentration is >250 μm),> 10 µM,> 10 µM,> 10 µM
